Tests used:
[1] = Toxicity in male C57BL/6J mouse assessed as catalepsy by measuring extrapyramidal symptoms at 3 mg/kg, ip measured after 30 to 60 mins by bar test; format: organism-based; conditions: in vivo, time 30-60 min
[2] = Acute toxicity in Kunming mouse assessed as animal death at 1000 mg/kg, po administered as single dose and measured after 7 days; format: organism-based; conditions: in vivo, 168 h, time 7 day
[3] = Subacute toxicity in Kunming mouse assessed as effect on heart coefficient at 50 mg/kg, po administered every two days for 14 days; format: organism-based; conditions: in vivo, 336 h, time 14 day
[4] = Subacute toxicity in Kunming mouse assessed as effect on body weight at 50 mg/kg, po administered every two days for 14 days; format: organism-based; conditions: in vivo, 336 h, time 14 day
[5] = Toxicity in male C57BL/6J mouse assessed as effect on locomotion at 1 to 10 mg/kg, po administered for 30 mins and measured after 10 mins by open field test; format: organism-based; conditions: in vivo, 40 min, dose 1-10 mg/kg
[6] = Subacute toxicity in Kunming mouse assessed as effect on spleen coefficient at 50 mg/kg, po administered every two days for 14 days; format: organism-based; conditions: in vivo, 336 h, time 14 day
[7] = Cmax in Sprague-Dawley rat at 10 mg/kg, po measured after 8 hrs by LC-MS/MS analysis; format: ADME, organism-based; conditions: in vivo
[8] = Half-life in Sprague-Dawley rat at 10 mg/kg, po measured after 8 hrs by LC-MS/MS analysis; format: ADME, organism-based; conditions: in vivo
[9] = Metabolic stability in human liver microsomes assessed as intrinsic clearance preincubated for 60 mins followed by NADPH addition and measured after 60 mins by LC-MS/MS analysis; format: ADME, Microsome; conditions: time 120 min, read-out: CLH
[10] = AUC (0 to infinity) in Sprague-Dawley rat at 2 mg/kg, iv measured after 8 hrs by LC-MS/MS analysis; format: ADME, organism-based; conditions: in vivo
[11] = Acute toxicity in Kunming mouse assessed as effect on kidney co-efficient at 1000 mg/kg, po administered as single dose and measured after 7 days; format: organism-based; conditions: in vivo, 168 h, time 7 day
[12] = Subacute toxicity in Kunming mouse assessed as pathological changes in lung at 50 mg/kg, po administered every two days for 14 days by H and E staining based analysis; format: organism-based; conditions: in vivo, 336 h, time 14 day
[13] = Acute toxicity in Kunming mouse assessed as effect on heart co-efficient at 1000 mg/kg, po administered as single dose and measured after 7 days; format: organism-based; conditions: in vivo, 168 h, time 7 day
[14] = Oral bioavailability in Sprague-Dawley rat at 10 mg/kg measured after 8 hrs by LC-MS/MS analysis; format: ADME, organism-based; conditions: in vivo
[15] = Subacute toxicity in Kunming mouse assessed as pathological changes in liver at 50 mg/kg, po administered every two days for 14 days by H and E staining based analysis; format: organism-based; conditions: in vivo, 336 h, time 14 day
[16] = Acute toxicity in Kunming mouse assessed as effect on spleen co-efficient at 1000 mg/kg, po administered as single dose and measured after 7 days; format: organism-based; conditions: in vivo, 168 h, time 7 day
[17] = Aqueous solubility of compound at pH 7.4; format: physicochemical; conditions: aqueous solution
[18] = Subacute toxicity in Kunming mouse assessed as effect on liver coefficient at 50 mg/kg, po administered every two days for 14 days; format: organism-based; conditions: in vivo, 336 h, time 14 day
[19] = Subacute toxicity in Kunming mouse assessed as pathological changes in kidney at 50 mg/kg, po administered every two days for 14 days by H and E staining based analysis; format: organism-based; conditions: in vivo, 336 h, time 14 day
[20] = Cmax in Sprague-Dawley rat at 2 mg/kg, iv measured after 8 hrs by LC-MS/MS analysis; format: ADME, organism-based; conditions: in vivo
[21] = Subacute toxicity in Kunming mouse assessed as abnormalities at 50 mg/kg, po administered every two days for 14 days; format: organism-based; conditions: in vivo, 336 h, time 14 day
[22] = AUC (0 to t) in Sprague-Dawley rat at 2 mg/kg, iv measured after 8 hrs by LC-MS/MS analysis; format: ADME, organism-based; conditions: in vivo
[23] = Aqueous solubility of compound at pH 2.0; format: physicochemical; conditions: aqueous solution
[24] = Tmax in Sprague-Dawley rat at 2 mg/kg, iv measured after 8 hrs by LC-MS/MS analysis; format: ADME, organism-based; conditions: in vivo
[25] = biological target: T1, Trace amine-associated receptor 1 (Homo sapiens, UniProt Q96RJ0); assay: Agonist activity at TAAR1 (unknown origin) transfected in HEK293 cells co-transfected with GalphaS-Nluc, Gbeta1/3 and Ggamma1/2/9-mVenus assessed as GalphaS-Gbeta/gamma dissociation by BRET assay; format: functional, cell-based
T1 sequence (Q96RJ0 whole entry): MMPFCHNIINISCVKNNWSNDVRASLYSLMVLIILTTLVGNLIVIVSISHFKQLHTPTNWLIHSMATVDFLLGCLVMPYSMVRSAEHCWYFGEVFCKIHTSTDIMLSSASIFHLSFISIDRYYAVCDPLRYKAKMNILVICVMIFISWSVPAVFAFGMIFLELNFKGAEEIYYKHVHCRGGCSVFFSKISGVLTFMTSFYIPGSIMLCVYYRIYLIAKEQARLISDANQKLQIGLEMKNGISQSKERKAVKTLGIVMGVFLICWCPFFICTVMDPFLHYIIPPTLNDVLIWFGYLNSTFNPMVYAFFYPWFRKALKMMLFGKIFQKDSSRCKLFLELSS

[26] = Toxicity in male C57BL/6J mouse assessed as catalepsy performance at 30 mg/kg, ip measured after 30 to 60 mins by bar test; format: organism-based; conditions: in vivo, time 30-60 min
[27] = Tmax in Sprague-Dawley rat at 10 mg/kg, po measured after 8 hrs by LC-MS/MS analysis; format: ADME, organism-based; conditions: in vivo
[28] = Acute toxicity in Kunming mouse assessed as effect on lung co-efficient at 1000 mg/kg, po administered as single dose and measured after 7 days; format: organism-based; conditions: in vivo, 168 h, time 7 day
[29] = AUC (0 to t) in Sprague-Dawley rat at 10 mg/kg, po measured after 8 hrs by LC-MS/MS analysis; format: ADME, organism-based; conditions: in vivo
Mus musculus [30] = assay: Antipsychotic activity in MK-801 induced male C57BL/6J mouse model assessed as improvement in recognition deficit performance by measuring discrimination index at 3 mg/kg, po pre-administered with MK-801 as twice daily days for 7 days followed by 1 week of washout period and measured after 1 hrs of compound administration by novel object recognition test (reference value: 0.37); format: functional
[31] = Acute toxicity in Kunming mouse assessed as abnormalities at 1000 mg/kg, po administered as single dose and measured after 7 days; format: organism-based; conditions: in vivo, 168 h, time 7 day
[32] = AUC (0 to infinity) in Sprague-Dawley rat at 10 mg/kg, po measured after 8 hrs by LC-MS/MS analysis; format: ADME, organism-based; conditions: in vivo
[33] = Acute toxicity in Kunming mouse assessed as effect on body weight at 1000 mg/kg, po administered as single dose and measured after 7 days; format: organism-based; conditions: in vivo, 168 h, time 7 day
[34] = biological target: T1, Trace amine-associated receptor 1; assay: Agonist activity at TAAR1 (unknown origin) transfected in HEK293 cells co-transfected with Galphaq-Nluc, Gbeta1/3 and Ggamma1/2/9-mVenus assessed as Galphaq-Gbeta/gamma dissociation by BRET assay; format: functional, cell-based
[35] = Subacute toxicity in Kunming mouse assessed as effect on lung coefficient at 50 mg/kg, po administered every two days for 14 days; format: organism-based; conditions: in vivo, 336 h, time 14 day
[36] = Subacute toxicity in Kunming mouse assessed as effect on kidney coefficient at 50 mg/kg, po administered every two days for 14 days; format: organism-based; conditions: in vivo, 336 h, time 14 day
[37] = Acute toxicity in Kunming mouse assessed as effect on liver co-efficient at 1000 mg/kg, po administered as single dose and measured after 7 days; format: organism-based; conditions: in vivo, 168 h, time 7 day
[38] = Half-life in Sprague-Dawley rat at 2 mg/kg, iv measured after 8 hrs by LC-MS/MS analysis; format: ADME, organism-based; conditions: in vivo
[39] = Aqueous solubility of compound at pH 7.0; format: physicochemical; conditions: aqueous solution
[40] = Clearance in Sprague-Dawley rat at 2 mg/kg, iv measured after 8 hrs by LC-MS/MS analysis; format: ADME, organism-based; conditions: in vivo
Mus musculus [41] = assay: Antipsychotic activity in MK-801 induced male C57BL/6J mouse model assessed as reduction in hyperlocomotion preadministered orally for 30 mins followed by MK801 administration for 30 mins and measured after 10 mins by open field test; format: functional, organism-based; conditions: dose 1-10 mg/kg, route po, time 70.0 min
Mus musculus [42] = assay: Antipsychotic activity in MK-801 induced male C57BL/6J mouse model assessed as locomotion at 10 mg/kg, po preadministered for 30 mins followed by MK801 administration for 30 mins and measured after 10 mins by open field test (reference value: 8631.5 cm); format: functional; conditions: time 70 min, 1.167 h
[43] = Subacute toxicity in Kunming mouse assessed as animal death at 50 mg/kg, po administered every two days for 14 days; format: organism-based; conditions: in vivo, 336 h, time 14 day
[44] = Metabolic stability in human liver microsomes assessed as half-life preincubated for 60 mins followed by NADPH addition and measured after 60 mins by LC-MS/MS analysis; format: ADME, Microsome; conditions: time 120 min
[45] = Subacute toxicity in Kunming mouse assessed as pathological changes in heart at 50 mg/kg, po administered every two days for 14 days by H and E staining based analysis; format: organism-based; conditions: in vivo, 336 h, time 14 day
[46] = biological target: T2, Trace amine-associated receptor 1 (Homo sapiens) (UniProt Q96RJ0); assay: Potency index, ratio of SEP-363856 EC50 to test compound EC50 for agonist activity at TAAR1 (unknown origin) transfected in HEK293 cells co-transfected with GalphaS-Nluc, Gbeta1/3 and Ggamma1/2/9-mVenus assessed as GalphaS-Gbeta/gamma dissociation by BRET assay; format: functional, cell-based; conditions: filed as agonist
T2 sequence (whole entry): T1 sequence (Q96RJ0 whole entry)

[47] = Subacute toxicity in Kunming mouse assessed as pathological changes in spleen at 50 mg/kg, po administered every two days for 14 days by H and E staining based analysis; format: organism-based; conditions: in vivo, 336 h, time 14 day

Compound: O=C(CCCN1CCC(O)(c2ccc(Cl)cc2)CC1)c1ccc(F)cc1 [HALOPERIDOL]
- Activity [1]: Toxic

Compound: COc1cccc(S(=O)(=O)NC[C@@H]2CCCN2)c1.Cl
- Activity [2]: Non-toxic
- Activity [3]: Non-toxic
- Activity [4]: Non-toxic
- Activity [5]: Non-toxic
- Activity [6]: Non-toxic
- Cmax [7]: 63.7 ng/mL
- half-life [8]: 91.8 min
- microsomal CLint [9]: 11 µL/min/mg
- AUC(0-inf) [10]: 356 ng·h/mL
- Activity [11]: Non-toxic
- Activity [12]: Non-toxic
- Activity [13]: Non-toxic
- bioavailability [14]: 13.4%
- Activity [15]: Non-toxic
- Activity [16]: Non-toxic
- solubility [17]: 43.3 mg/mL
- Activity [18]: Non-toxic
- Activity [19]: Non-toxic
- Cmax [20]: 746 ng/mL
- Activity [21]: Non-toxic
- AUC(0-t) at 8 h [22]: 355 ng·h/mL
- solubility [23]: 96.2 mg/mL
- Tmax [24]: 1.8 min
- EC50 [25]: 6.1 nM
- Activity [26]: Non-toxic
- Tmax [27]: 25.2 min
- Activity [28]: Non-toxic
- AUC(0-t) at 8 h [29]: 229 ng·h/mL
- Activity_index (Mus musculus [30]): 0.48
- Activity [31]: Non-toxic
- AUC(0-inf) [32]: 240 ng·h/mL
- Activity [33]: Non-toxic
- EC50 [34]: 14.8 nM
- Activity [35]: Non-toxic
- Activity [36]: Non-toxic
- Activity [37]: Non-toxic
- half-life [38]: 21 min
- solubility [39]: 65.7 mg/mL
- clearance [40]: 94.1 mL/min/kg
- Activity (Mus musculus [41]): Dose-dependent-effect
- Activity (Mus musculus [42]): 3917.8 cm
- Activity [43]: Non-toxic
- half-life [44]: 126 min
- Activity [45]: Non-toxic
- Ratio EC50 [46]: 3.5
- Activity [47]: Non-toxic
